Target: T1, Core-binding factor subunit beta (Homo sapiens, UniProt Q13951)
T1 sequence (Q13951 whole entry): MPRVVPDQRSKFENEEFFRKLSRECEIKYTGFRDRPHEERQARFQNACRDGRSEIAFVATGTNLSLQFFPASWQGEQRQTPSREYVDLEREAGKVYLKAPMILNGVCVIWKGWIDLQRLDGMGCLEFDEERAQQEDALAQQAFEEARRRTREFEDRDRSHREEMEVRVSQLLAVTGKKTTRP
Assay: FRET Assay
Excerpt: We have developed effective assays to monitor the inhibition of CBFβ-SMMHC binding to the Runt domain (as well as for CBFβ binding to the Runt domain). […] The ratio of the emission intensities at 525 nm and 474 nm, measured after excitation at 433 nm, was used as the readout in this assay.

IC50 [µM]	Structure (SMILES)
3.4	c1ccc(-c2nc3cc(-n4ccnc4)ccc3[nH]2)nc1 [US8748618, AI-10-88]
2.5	Oc1ccc2nc(-c3ccccn3)[nH]c2c1 [US8748618, AI-10-61]
1	FC(F)(F)Oc1ccc2[nH]c(-c3ccccn3)nc2c1 [US8748618, AI-10-47]
1.4	Fc1cc2[nH]c(-c3ccccn3)nc2c(F)c1F [US8748618, AI-4-43]
1	c1ccc(-c2nc3ccc(N4CCOCC4)cc3[nH]2)nc1 [US8748618, AI-10-3]
5.3	Cc1cccc2[nH]c(-c3ccccn3)nc12 [US8748618, AI-4-46]
5.5	COc1cccc2[nH]c(-c3ccccn3)nc12 [US8748618, AI-4-52]
22	Fc1cccnc1-c1nc2ccc(OC(F)(F)F)cc2[nH]1 [US8748618, AI-10-65]
0.76	FC(F)(F)c1cc(Cl)c2[nH]c(-c3ccccn3)nc2c1 [US8748618, AI-4-48]
3.3	CS(=O)(=O)c1ccc2nc(-c3ccccn3)[nH]c2c1 [US8748618, AI-10-37]
2.3	COCCOc1ccc(-c2nc3ccc(OC(F)(F)F)cc3[nH]2)nc1 [US8748618, AI-10-87]
4.2	CCOc1cccc2[nH]c(-c3ccccn3)nc12 [US8748618, AI-4-42]
0.7	Clc1cc(Cl)c2nc(-c3ccccn3)[nH]c2c1 [US8748618, AI-4-49]

Structure (SMILES)	IC50 [µM]
Fc1ccc2[nH]c(-c3ccccn3)nc2c1 [US8748618, LD-1-31]	2.5
Cc1ccc2[nH]c(-c3ccccn3)nc2c1 [US8748618, LD-2-11]	2.9
Cc1cc2nc(-c3ccccn3)[nH]c2cc1C [US8748618, LD-1-37]	2
CC(C)Oc1ccc2[nH]c(-c3ccccn3)nc2c1 [US8748618, AI-4-70 (or) LD-2-21]	1.4
Fc1cc2nc(-c3ccccn3)[nH]c2cc1F [US8748618, LD-1-33]	2.5
Cc1ccc2[nH]c(-c3ccccn3)nc2c1C [US8748618, LD-1-23]	4.3
CCOc1ccc2[nH]c(-c3ccccn3)nc2c1 [US8748618, LD-1-29 (or) AI-10-54]	1.5
Clc1ccc2nc(-c3ccccn3)[nH]c2c1 [US8748618, LD-2-79]	2.3
FC(F)(F)c1ccc2[nH]c(-c3ccccn3)nc2c1 [US8748618, LD-2-23]	1.1

Reference: BindingDB's records for patent US8748618 (University of Virginia Patent Foundation, 2014)
